Literature values in patent US10857195B2, “Plant extracts for improving sleep” (Kemin Industries, Inc., priority 2014, dated 2020).

System: aging mice
Conditions: RA administered to aging mice

O=C(/C=C/c1ccc(O)c(O)c1)O[C@H](Cc1ccc(O)c(O)c1)C(=O)O [RA, Rosmarinic acid]
catalase (CAT) activity in the brain: increased | malondialdehyde (MDA) in the brain: decreasing | superoxide dismutase (SOD) activity in the brain: increased
